Measured values published in publication PMC12586182 (Frontiers in Oncology, 2025).

Assays:
Assay in all cases: Kinase panel profiling at 1 µmol/L (mobility shift assay, Carna)
Type in all cases: biochemical
Conditions in all cases: 1 µmol/L of BTK inhibitor
EPHA3 = target: T1, EPHA3 (Homo sapiens, UniProt P29320)
T1 construct: purchased Carna Biosciences
T1 sequence (P29320 21-983): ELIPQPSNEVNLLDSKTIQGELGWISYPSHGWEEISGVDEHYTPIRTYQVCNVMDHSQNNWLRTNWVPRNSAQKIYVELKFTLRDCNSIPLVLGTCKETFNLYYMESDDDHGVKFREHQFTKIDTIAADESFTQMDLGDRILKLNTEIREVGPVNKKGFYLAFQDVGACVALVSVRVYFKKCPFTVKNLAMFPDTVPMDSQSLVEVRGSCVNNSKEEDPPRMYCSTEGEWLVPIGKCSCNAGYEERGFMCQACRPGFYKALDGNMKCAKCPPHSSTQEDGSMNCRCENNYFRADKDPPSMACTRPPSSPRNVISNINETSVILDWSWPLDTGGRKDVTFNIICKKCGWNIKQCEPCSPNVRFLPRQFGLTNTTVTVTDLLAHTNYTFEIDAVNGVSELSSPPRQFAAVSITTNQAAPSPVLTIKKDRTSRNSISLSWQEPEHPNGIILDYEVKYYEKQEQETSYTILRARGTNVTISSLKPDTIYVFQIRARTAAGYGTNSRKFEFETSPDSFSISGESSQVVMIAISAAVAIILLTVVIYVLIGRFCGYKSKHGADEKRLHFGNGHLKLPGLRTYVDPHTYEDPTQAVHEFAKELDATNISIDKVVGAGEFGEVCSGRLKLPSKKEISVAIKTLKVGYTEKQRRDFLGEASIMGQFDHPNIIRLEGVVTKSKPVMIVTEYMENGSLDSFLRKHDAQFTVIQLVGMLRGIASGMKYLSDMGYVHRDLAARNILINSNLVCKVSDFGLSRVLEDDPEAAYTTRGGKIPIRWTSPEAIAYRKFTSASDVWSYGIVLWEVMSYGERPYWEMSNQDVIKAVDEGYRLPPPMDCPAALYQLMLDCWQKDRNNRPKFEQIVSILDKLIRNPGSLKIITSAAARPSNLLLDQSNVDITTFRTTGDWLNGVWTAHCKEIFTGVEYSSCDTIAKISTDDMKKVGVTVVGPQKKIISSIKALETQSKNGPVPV

FLT3 = target: T2, FLT3 (Homo sapiens, UniProt P36888)
T2 construct: purchased Carna Biosciences
T2 sequence (P36888 27-993): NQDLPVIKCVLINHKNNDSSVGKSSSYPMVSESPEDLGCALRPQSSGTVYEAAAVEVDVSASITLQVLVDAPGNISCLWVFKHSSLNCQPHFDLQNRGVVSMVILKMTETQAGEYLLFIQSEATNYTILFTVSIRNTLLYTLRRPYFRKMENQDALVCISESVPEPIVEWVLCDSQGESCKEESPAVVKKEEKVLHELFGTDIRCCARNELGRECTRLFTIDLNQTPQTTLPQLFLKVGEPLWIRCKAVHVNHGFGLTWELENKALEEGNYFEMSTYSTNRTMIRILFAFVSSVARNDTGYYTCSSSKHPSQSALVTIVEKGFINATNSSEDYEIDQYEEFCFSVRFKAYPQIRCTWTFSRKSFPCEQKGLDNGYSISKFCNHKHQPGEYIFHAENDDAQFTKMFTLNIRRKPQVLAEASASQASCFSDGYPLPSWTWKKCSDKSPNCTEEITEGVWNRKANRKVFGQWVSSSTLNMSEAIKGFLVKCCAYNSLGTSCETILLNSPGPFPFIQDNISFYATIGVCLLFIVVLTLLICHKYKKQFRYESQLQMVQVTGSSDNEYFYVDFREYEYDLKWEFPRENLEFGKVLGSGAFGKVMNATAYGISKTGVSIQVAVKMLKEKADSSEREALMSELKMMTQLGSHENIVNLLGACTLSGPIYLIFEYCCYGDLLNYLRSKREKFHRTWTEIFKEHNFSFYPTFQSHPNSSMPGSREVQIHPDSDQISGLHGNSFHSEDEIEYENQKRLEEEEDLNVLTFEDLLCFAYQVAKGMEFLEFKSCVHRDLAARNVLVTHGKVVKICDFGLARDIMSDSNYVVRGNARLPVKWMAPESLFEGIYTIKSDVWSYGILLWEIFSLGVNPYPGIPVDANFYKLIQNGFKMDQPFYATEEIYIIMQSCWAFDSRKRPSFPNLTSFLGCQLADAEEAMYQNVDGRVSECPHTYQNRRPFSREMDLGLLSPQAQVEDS

MAPKAPK5 = target: T3, MAPKAPK5 (Homo sapiens, UniProt Q8IW41)
T3 construct: purchased Carna Biosciences
T3 sequence (Q8IW41 1-473): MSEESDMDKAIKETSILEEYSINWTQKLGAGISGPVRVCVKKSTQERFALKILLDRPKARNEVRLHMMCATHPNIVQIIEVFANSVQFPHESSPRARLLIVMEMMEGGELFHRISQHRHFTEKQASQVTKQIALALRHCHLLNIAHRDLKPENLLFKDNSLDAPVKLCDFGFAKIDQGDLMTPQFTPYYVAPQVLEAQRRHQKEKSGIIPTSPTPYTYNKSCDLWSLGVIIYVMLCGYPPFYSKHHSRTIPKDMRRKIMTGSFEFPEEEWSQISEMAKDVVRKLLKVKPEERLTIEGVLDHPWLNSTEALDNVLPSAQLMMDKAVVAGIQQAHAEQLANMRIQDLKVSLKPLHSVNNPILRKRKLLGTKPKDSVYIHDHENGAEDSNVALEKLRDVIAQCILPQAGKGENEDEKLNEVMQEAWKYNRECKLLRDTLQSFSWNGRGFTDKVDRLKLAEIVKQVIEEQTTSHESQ

MSK2 = target: T4, MSK2 (Homo sapiens, UniProt O75676)
T4 construct: purchased Carna Biosciences
T4 sequence (O75676 whole entry): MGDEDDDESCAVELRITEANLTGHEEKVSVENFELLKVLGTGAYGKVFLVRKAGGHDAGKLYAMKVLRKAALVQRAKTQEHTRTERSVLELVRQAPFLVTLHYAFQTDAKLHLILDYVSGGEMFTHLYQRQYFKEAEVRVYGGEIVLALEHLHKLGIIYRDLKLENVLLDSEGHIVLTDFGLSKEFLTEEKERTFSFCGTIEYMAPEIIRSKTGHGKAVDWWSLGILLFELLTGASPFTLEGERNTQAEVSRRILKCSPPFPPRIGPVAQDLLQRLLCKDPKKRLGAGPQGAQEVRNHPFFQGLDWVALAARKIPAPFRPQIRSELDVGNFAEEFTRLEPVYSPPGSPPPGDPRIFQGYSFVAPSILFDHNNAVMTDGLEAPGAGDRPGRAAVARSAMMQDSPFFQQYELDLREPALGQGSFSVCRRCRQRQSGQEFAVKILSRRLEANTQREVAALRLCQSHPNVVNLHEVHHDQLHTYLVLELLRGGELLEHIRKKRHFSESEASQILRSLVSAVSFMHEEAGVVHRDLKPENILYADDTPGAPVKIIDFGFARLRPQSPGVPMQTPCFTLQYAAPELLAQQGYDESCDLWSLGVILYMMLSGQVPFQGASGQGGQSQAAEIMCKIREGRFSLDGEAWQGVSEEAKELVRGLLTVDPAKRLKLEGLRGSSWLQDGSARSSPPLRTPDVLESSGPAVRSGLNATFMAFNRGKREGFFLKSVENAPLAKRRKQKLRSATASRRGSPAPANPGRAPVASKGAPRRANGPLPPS

NEK4 = target: T5, NEK4 (Homo sapiens, UniProt P51957)
T5 construct: purchased Carna Biosciences
T5 sequence (P51957 whole entry): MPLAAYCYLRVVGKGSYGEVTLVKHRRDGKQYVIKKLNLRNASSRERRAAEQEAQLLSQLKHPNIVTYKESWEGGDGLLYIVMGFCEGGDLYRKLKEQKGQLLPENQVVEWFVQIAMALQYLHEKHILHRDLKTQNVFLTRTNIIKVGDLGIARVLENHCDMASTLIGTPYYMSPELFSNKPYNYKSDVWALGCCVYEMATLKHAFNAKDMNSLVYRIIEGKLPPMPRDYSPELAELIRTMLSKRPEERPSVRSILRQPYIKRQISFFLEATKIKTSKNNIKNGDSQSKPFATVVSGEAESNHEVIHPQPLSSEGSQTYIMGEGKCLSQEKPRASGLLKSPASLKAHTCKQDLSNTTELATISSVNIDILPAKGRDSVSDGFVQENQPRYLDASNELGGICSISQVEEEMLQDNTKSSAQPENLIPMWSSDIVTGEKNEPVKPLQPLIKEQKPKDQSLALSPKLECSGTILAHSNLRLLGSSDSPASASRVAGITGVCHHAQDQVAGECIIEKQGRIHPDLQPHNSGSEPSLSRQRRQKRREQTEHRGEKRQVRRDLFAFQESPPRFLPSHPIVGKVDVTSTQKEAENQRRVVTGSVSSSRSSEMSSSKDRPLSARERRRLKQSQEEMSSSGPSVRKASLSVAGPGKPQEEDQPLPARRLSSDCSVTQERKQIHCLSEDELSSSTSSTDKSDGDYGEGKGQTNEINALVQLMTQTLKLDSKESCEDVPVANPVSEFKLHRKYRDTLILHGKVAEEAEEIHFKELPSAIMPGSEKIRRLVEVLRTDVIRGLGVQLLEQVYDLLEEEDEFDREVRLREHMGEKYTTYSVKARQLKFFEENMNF

SMILES: CC#CC(=O)N1CCC[C@H]1c1nc(-c2ccc(C(=O)Nc3ccccn3)cc2)c2c(N)nccn12 [acalabrutinib]
- Percentage inhibition of kinase enzyme activity (EPHA3): -2.07%
- Percentage inhibition of kinase enzyme activity (FLT3): 3.27%
- Percentage inhibition of kinase enzyme activity (MAPKAPK5): -1.87%
- Percentage inhibition of kinase enzyme activity (MSK2): 1.53%
- Percentage inhibition of kinase enzyme activity (NEK4): -4.76%

SMILES: C=CC(=O)N1CCC([C@@H]2CCNc3c(C(N)=O)c(-c4ccc(Oc5ccccc5)cc4)nn32)CC1 [zanubrutinib]
- Percentage inhibition of kinase enzyme activity (EPHA3): -0.20%
- Percentage inhibition of kinase enzyme activity (FLT3): 6.34%
- Percentage inhibition of kinase enzyme activity (NEK4): 0.95%

SMILES: O=C(c1ccc(Oc2ccccc2)cc1Cl)c1c[nH]c2ncnc(N[C@@H]3CC[C@@H](CO)OC3)c12 [nemtabrutinib]
- Percentage inhibition of kinase enzyme activity (EPHA3): 50.57%
- Percentage inhibition of kinase enzyme activity (FLT3): 99.30%
- Percentage inhibition of kinase enzyme activity (MAPKAPK5): -2.46%
- Percentage inhibition of kinase enzyme activity (MSK2): 5.69%
- Percentage inhibition of kinase enzyme activity (NEK4): 7.11%

SMILES: COc1ccc(F)cc1C(=O)NCc1ccc(-c2nn([C@@H](C)C(F)(F)F)c(N)c2C(N)=O)cc1 [pirtobrutinib]
- Percentage inhibition of kinase enzyme activity (EPHA3): -5.46%
- Percentage inhibition of kinase enzyme activity (FLT3): -4.18%
- Percentage inhibition of kinase enzyme activity (MAPKAPK5): -1.10%
- Percentage inhibition of kinase enzyme activity (MSK2): 1.57%
- Percentage inhibition of kinase enzyme activity (NEK4): -3.18%

SMILES: C=CC(=O)N1CCC[C@@H](n2nc(-c3ccc(Oc4ccccc4)cc3)c3c(N)ncnc32)C1 [ibrutinib]
- Percentage inhibition of kinase enzyme activity (EPHA3): 3.80%
- Percentage inhibition of kinase enzyme activity (FLT3): 62.77%
- Percentage inhibition of kinase enzyme activity (MAPKAPK5): -2.44%
- Percentage inhibition of kinase enzyme activity (MSK2): -2.09%
- Percentage inhibition of kinase enzyme activity (NEK4): 4.65%
